Patent US7060834B2, “N-type calcium channel antagonists for the treatment of pain” (AstraZeneca AB, priority 2001, dated 2006)

Experiments:
chemo-nociception = conditions: phenylbenzoquinone-induced writhing and formalin test; cited from earlier work
N-type calcium channel = N-type calcium channel (Homo sapiens, UniProt Q00975); experiment: N-Channel FLIPR (Fluorescent Laser Imaging Plate Reader) assay; format: cell-based; conditions: inhibition of 80 mM K+ evoked calcium flux, differentiated IMR32 cells
Chain of N-type calcium channel (Q00975 whole entry): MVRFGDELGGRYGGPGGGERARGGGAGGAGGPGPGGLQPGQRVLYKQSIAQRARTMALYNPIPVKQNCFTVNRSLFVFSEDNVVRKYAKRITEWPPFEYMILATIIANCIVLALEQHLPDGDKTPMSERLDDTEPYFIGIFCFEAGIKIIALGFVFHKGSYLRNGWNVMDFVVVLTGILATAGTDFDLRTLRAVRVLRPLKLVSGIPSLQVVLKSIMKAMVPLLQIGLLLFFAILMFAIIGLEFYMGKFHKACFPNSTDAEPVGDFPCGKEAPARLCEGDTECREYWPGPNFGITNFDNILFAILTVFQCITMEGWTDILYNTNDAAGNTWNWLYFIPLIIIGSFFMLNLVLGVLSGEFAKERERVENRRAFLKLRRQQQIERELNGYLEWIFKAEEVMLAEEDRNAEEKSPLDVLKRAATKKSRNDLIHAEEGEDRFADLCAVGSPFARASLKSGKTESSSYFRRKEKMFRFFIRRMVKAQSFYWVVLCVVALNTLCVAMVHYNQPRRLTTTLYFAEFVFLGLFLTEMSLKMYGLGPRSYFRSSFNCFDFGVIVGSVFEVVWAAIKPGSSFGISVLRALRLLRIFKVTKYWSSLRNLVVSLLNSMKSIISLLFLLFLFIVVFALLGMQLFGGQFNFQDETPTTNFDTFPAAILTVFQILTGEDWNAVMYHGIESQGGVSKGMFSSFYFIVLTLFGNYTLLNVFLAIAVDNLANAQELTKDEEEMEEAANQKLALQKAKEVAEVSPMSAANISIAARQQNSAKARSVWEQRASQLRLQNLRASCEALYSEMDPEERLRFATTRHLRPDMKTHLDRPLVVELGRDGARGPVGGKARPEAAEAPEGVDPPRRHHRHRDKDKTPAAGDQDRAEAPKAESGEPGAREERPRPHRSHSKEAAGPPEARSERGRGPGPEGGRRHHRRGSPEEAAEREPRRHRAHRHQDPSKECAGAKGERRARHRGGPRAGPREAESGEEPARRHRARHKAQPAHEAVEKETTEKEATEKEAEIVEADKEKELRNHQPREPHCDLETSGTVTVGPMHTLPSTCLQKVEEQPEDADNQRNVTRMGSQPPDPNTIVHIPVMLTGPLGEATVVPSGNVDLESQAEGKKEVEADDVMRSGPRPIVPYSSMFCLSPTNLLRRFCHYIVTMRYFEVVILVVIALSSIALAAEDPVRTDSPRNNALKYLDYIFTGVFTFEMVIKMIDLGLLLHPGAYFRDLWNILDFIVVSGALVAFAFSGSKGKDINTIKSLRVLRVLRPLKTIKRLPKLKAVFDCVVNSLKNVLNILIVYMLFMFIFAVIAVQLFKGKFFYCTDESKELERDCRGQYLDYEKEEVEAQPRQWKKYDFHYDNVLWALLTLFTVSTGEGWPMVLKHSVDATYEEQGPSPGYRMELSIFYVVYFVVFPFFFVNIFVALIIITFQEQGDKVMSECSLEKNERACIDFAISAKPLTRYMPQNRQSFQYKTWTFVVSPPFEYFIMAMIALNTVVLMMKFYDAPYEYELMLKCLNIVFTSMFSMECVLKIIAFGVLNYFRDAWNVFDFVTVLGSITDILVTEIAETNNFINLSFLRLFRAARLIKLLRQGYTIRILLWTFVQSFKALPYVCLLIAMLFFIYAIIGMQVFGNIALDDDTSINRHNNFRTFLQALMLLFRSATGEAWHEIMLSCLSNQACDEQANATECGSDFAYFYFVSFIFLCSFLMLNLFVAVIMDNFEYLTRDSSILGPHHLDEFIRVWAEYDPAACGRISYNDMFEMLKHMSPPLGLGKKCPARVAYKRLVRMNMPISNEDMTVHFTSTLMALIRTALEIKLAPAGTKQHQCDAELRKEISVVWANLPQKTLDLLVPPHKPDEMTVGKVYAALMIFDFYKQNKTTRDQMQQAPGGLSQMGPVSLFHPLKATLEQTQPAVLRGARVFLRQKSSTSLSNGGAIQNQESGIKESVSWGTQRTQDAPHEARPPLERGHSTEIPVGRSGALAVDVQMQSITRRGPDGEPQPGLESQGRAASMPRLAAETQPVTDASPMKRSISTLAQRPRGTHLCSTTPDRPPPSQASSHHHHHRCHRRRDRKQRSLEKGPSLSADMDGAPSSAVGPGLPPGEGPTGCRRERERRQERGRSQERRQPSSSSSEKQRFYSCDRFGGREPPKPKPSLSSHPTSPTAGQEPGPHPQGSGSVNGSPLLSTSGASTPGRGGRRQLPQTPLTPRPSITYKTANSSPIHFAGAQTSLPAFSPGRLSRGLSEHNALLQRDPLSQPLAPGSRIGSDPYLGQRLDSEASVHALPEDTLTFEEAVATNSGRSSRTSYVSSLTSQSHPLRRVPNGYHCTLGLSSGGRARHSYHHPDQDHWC
Chain of N-type calcium channel (P54289 25-1103 partner): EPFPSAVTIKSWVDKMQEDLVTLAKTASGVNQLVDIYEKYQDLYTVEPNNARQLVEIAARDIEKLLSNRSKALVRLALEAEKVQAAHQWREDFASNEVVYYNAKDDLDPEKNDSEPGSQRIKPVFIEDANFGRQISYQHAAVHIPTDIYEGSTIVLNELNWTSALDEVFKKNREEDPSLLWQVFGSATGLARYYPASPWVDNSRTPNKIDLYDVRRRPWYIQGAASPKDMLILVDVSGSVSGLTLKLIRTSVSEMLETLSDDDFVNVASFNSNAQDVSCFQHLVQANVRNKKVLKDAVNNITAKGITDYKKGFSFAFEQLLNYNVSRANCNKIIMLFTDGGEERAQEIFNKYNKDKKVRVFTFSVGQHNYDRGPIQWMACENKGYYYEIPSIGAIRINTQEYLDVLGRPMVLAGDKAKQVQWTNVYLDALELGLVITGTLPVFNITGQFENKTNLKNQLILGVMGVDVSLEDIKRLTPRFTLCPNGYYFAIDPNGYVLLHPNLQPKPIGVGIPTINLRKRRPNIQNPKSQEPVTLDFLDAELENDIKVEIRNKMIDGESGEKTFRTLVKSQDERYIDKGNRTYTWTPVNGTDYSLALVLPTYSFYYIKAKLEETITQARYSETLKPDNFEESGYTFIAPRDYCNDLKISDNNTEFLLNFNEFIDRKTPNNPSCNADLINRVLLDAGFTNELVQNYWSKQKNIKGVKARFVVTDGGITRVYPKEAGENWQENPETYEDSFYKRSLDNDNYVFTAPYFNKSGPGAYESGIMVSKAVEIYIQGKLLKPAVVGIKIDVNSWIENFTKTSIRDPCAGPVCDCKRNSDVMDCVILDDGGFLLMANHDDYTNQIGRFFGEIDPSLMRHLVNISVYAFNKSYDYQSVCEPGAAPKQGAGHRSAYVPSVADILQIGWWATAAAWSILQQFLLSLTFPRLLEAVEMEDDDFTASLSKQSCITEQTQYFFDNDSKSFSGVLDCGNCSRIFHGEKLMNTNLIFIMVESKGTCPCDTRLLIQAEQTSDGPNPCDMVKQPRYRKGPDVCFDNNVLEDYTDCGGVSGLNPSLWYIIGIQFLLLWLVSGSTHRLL
Chain of N-type calcium channel (P54284 whole entry partner): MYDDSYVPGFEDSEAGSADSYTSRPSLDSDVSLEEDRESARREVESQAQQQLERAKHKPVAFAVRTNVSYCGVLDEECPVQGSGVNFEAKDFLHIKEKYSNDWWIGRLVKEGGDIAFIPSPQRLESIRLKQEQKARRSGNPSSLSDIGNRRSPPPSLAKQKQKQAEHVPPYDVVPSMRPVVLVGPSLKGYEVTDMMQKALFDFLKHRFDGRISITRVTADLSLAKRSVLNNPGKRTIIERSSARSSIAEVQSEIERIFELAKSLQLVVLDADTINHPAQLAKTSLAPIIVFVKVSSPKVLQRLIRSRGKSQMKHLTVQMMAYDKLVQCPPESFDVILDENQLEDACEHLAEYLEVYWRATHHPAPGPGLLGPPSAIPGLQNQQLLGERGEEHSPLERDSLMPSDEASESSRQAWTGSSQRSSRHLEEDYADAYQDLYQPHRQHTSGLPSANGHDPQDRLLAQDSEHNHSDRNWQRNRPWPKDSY

[1] = test system: formalin-induced nocifensive behaviours; experiment: Formalin test; format: in vivo, rats
Protocol: II. Formalin Test. The Formalin test assesses the inhibitory effects of orally administered N-type calcium channel antagonists on formalin-induced nocifensive behaviours in rats. The formalin test is a well established pain test (Dubuisson and Dennis, 1977; Wheeler-Aceto et al., 1990; Coderre et al., 1993). This test consists of two distinct phases of formalin-induced behavior. The first phase response, occurring between 0 to 5 minutes, is caused by acute nociception to the noxious chemical (formalin) injected into the paw. This is followed by a quiescent period of between 5 to 15 min post injection. A second phase response, occurring after 15 minutes and lasting up to 60 minutes, is caused by sensitization of the central neurons in the dorsal horn. Central sensitization augments the noxious afferent input and a stronger pain barrage is transmitted into the brain. Inhibition of the second phase response is indicative of a central mechanism of drug action. The procedure for the formalin test is as follows: male rats are placed in a Plexiglas chamber and observed for 30-45 min. to observe their baseline activity. Multiple groups of animals are pretreated with either vehicle or different doses of a test compound. Animals are dosed with the drug of interest either 40 min., if by the intraperitoneal route, or 90 min., if by the oral route, prior to injection of formalin into a hind paw (under the dorsal skin; 0.05 mL of sterile 5% formalin). The number of paw flinches and licks during first phase (0-5 min.) and second phase (20-35 min.) are scored and recorded. […] and lick responses are calculated as percentage of inhibition compared with the mean score of a saline control group. Drug potencies are expressed as the dose which causes 50% of the maximum inhibitory effect (“ID50”). Student t-tests are used for statistical analysis to determine the significance of drug effects. Compounds are considered active based on their ability to inhibit the flinch response.

| Structure (SMILES) | IC50 (N-type calcium channel) | other results |
| --- | --- | --- |
| COc1ccccc1CC(=N)N1C[C@@H]2C(=O)CCC(c3ccccc3)(c3ccccc3)[C@@H]2C1 [RP 67,580] |  | analgesia (chemo-nociception): produced analgesia with potency comparable to that of morphine |
| COc1ccc(Nc2cc(NCC(C)(C)C)c3ccccc3n2)cc1OC [Example 3, N2(3,4-dimethoxy-phenyl)-N4(2,2-dimethyl-propyl)-quinoline-2,4-diamine] | 1.72 µM | Formalin test % inhibition (dose, time, route) ([1]; (75, 40, IP)): 22 (75, 40, IP) % |
| COc1ccc(Nc2cc(NCC(C)(C)C)c3cccc(F)c3n2)cc1OC [Example 8, N2(3,4-Dimethoxy-phenyl)-N4(2,2-dimethyl-propyl)-8-fluoro-quinoline-2,4-diamine] | 2.82 µM |  |
| CC(C)(C)CNc1cc(Nc2ccc(F)c(Cl)c2)nc2ccccc12 [Example 2, N2(3-chloro-4-fluoro-phenyl)-N4(2,2-dimethyl-propyl)-quinoline-2,4-diamine] | 5.87 µM | Formalin test % inhibition (dose, time, route) ([1]; (76, 40, IP)): 39 (76, 40, IP) % |
| CC(C)(C)CNc1cc(Nc2ccccc2N2CCOCC2)nc2ccccc12 [Example 7, N4(2,2-dimethyl-propyl)-N2(2-morpholin-4-yl-phenyl)-quinoline-2,4-diamine] | 0.67 µM | Formalin test % inhibition (dose, time, route) ([1]; (59, 40, IP)): 24 (59, 40, IP) % |
| CC(C)(C)CNc1cc(Nc2ccc3ncsc3c2)nc2c(F)cccc12 [Example 11, N2-Benzothiazol-6-yl-N4(2,2-dimethyl-propyl)-8-fluoro-quinoline-2,4-diamine] | 6.87 µM |  |
